EC50 data for 31 compounds are collected here from patent publication US10351547B2, “Somatostatin modulators and uses thereof” (priority 2016, dated 2019).

Where only a bound is given, the exact number is not on record here.

The target in the first assay is human SSTR2 (Homo sapiens (Human), UniProt P30874). As to the kind of experiment: Human SSTR2 intracellular cAMP functional assay for agonists (HTRF). In kind it is cell-based.
Chain of human SSTR2 (P30874 whole entry): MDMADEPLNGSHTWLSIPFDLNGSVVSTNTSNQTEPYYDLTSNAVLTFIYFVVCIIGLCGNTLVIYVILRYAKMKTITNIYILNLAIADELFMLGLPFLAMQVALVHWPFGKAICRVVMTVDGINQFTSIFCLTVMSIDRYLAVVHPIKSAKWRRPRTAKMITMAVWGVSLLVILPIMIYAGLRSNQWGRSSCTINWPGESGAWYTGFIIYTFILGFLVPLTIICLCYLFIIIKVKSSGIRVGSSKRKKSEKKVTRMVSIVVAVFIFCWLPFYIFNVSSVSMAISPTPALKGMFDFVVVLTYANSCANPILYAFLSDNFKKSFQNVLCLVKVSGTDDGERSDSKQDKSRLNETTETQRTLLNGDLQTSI
Settings: not given
Summed up: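 Cells bearing human SSTR2 exposed to compound for 20 minutes at 37 °C; after lysis, cAMP measured by time-resolved fluorescence (HTRF) and converted via a standard curve. EC50 calculated from cAMP versus compound concentration.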
A general note: Time-resolved FRET reads energy transfer from a long-lived donor to a nearby acceptor.
On to `NC1CCN(c2c(-c3cc(Cl)cc(Cl)c3)cnc3ccccc23)CC1` [2-11, 1-[3-(3,5-dichlorophenyl)quinolin-4-yl]piperidin-4-amine], for which the EC50 was in the range of 10 to 100 nM.
On the same count and under the same terms, for `Cc1cc(F)cc(-c2cnc3ccc(-c4cccc(C#N)c4O)cc3c2N2CC(CN)C2)c1` [2-12, 3-{4-[3-(aminomethyl)azetidin-1-yl]-3-(3-fluoro-5-methylphenyl)quinolin-6-yl}-2-hydroxybenzonitrile] the value was 10 to 100 nM.
As for `Cc1cc(Cl)cc(-c2cnc3ccc(-c4cccc(C#N)c4O)cc3c2N2CC(CN)C2)c1` [2-13, 3-{4-[3-(aminomethyl)azetidin-1-yl]-3-(3-chloro-5-methylphenyl)quinolin-6-yl}-2-hydroxybenzonitrile], the concentration for a half-maximal effect (EC50) is 10 to 100 nM.
The same measure, in the same setting: under `Cc1cc(F)cc(-c2cnc3ccc(-c4cc(F)cc(C(N)=O)c4)cc3c2N2CC(C)(CN)C2)c1` [2-14, 3-{4-[3-(aminomethyl)-3-methylazetidin-1-yl]-3-(3-fluoro-5-methylphenyl)quinolin-6-yl}-5-fluorobenzamide] stands 10 to 100 nM.
Same read-out and setting: under `CCNCC1CN(c2c(-c3cc(C)cc(F)c3)cnc3ccc(-c4cc(F)cc(C#N)c4O)cc23)C1` [2-18, 3-(4-{3-[(ethylamino)methyl]azetidin-1-yl}-3-(3-fluoro-5-methylphenyl)quinolin-6-yl)-5-fluoro-2-hydroxybenzonitrile] stands less than 10 nM.
Still for that read-out and setting: under `N#Cc1cc(F)cc(-c2ccc3ncc(-c4cc(F)cc(Cl)c4)c(N4CC(CN)C4)c3c2)c1O` [2-21, 3-{4-[3-(aminomethyl)azetidin-1-yl]-3-(3-chloro-5-fluorophenyl)quinolin-6-yl}-5-fluoro-2-hydroxybenzonitrile] stands 10 to 100 nM; under `Cc1cc(Cl)cc(-c2cnc3ccc(-c4cc(F)cc(C#N)c4O)cc3c2N2CC(CN)C2)c1` [2-22, 3-{4-[3-(aminomethyl)azetidin-1-yl]-3-(3-chloro-5-methylphenyl)quinolin-6-yl}-5-fluoro-2-hydroxybenzonitrile], 10 to 100 nM; under `N#Cc1cc(F)cc(-c2ccc3ncc(-c4cc(F)cc(F)c4)c(N4CC(CN)C4)c3c2)c1O` [2-23, 3-{4-[3-(aminomethyl)azetidin-1-yl]-3-(3,5-difluorophenyl)quinolin-6-yl}-5-fluoro-2-hydroxybenzonitrile], 100 to 1000 nM.
`Cc1cc(F)cc(-c2cnc3ccc(-c4cc(F)cc(C#N)c4O)cc3c2N2CC(CNC3COC3)C2)c1` [2-33, 5-fluoro-3-[3-(3-fluoro-5-methylphenyl)-4-(3-{[(oxetan-3-yl)amino]methyl}azetidin-1-yl)quinolin-6-yl]-2-hydroxybenzonitrile] gave a concentration for a half-maximal effect (EC50) of 10 to 100 nM.
`Cc1cc(F)cc(-c2cnc3ccc(-c4cc(F)cc(C#N)c4O)cc3c2N2CC(CN3CCOCC3)C2)c1` [2-35, 5-fluoro-3-[3-(3-fluoro-5-methylphenyl)-4-[3-(morpholin-4-ylmethyl)azetidin-1-yl]quinolin-6-yl]-2-hydroxybenzonitrile] gave a concentration for a half-maximal effect (EC50) of 100 to 1000 nM.
The same measure, in the same setting: for `COCC(C)(C)NCC1CN(c2c(-c3cc(C)cc(F)c3)cnc3ccc(-c4cc(F)cc(C#N)c4O)cc23)C1` [2-39, 5-fluoro-3-[3-(3-fluoro-5-methylphenyl)-4-(3-{[(1-methoxy-2-methylpropan-2-yl)amino]methyl}azetidin-1-yl)quinolin-6-yl]-2-hydroxybenzonitrile] the value was 100 to 1000 nM.
Regarding `CCC(CO)NCC1CN(c2c(-c3cc(C)cc(F)c3)cnc3ccc(-c4cc(F)cc(C#N)c4O)cc23)C1` (stereo not shown) [2-41, 5-fluoro-3-[3-(3-fluoro-5-methylphenyl)-4-(3-{[(1-hydroxybutan-2-yl)amino]methyl}azetidin-1-yl)quinolin-6-yl]-2-hydroxybenzonitrile], the concentration giving a half-maximal response (EC50) fell in the range of 10 to 100 nM.
The compound `CCN(CCO)CC1CN(c2c(-c3cc(C)cc(F)c3)cnc3ccc(-c4cc(F)cc(C#N)c4O)cc23)C1` [2-44, 3-[4-(3-{[ethyl(2-hydroxyethyl)amino]methyl}azetidin-1-yl)-3-(3-fluoro-5-methylphenyl)quinolin-6-yl]-5-fluoro-2-hydroxybenzonitrile] returned a concentration giving a half-maximal response (EC50) of 100 to 1000 nM.

Staying with this assay, now noted: CHO-K1 cells stably expressing human SSTR2; NKH477-stimulated cAMP; read-out: EC50 (inhibition of cAMP activities via human SST2R).
On to `Cc1cc(F)cc(-c2cnc3ccc(-c4cccc5[nH]c(=O)[nH]c45)cc3c2N2CCC(N)CC2)c1` [2-8, 4-[4-(4-aminopiperidin-1-yl)-3-(3-fluoro-5-methylphenyl)quinolin-6-yl]-2,3-dihydro-1H-1,3-benzodiazol-2-one], for which the concentration for a half-maximal effect (EC50) was less than 10 nM.
Still for that read-out and setting: under `Cc1cc(F)cc(-c2cnc3ccc(-c4ccc5[nH]c(=O)[nH]c5c4)cc3c2N2CCC(N)CC2)c1` [2-9, 5-[4-(4-aminopiperidin-1-yl)-3-(3-fluoro-5-methylphenyl)quinolin-6-yl]-2,3-dihydro-1H-1,3-benzodiazol-2-one] stands less than 10 nM; under `N#Cc1cc(F)cc(-c2ccc3ncc(-c4cc(F)cc(F)c4)c(N4CCC(N)CC4)c3c2)c1O` [2-10, 3-[4-(4-aminopiperidin-1-yl)-3-(3,5-difluorophenyl)quinolin-6-yl]-5-fluoro-2-hydroxybenzonitrile], less than 10 nM; under `Cc1cc(Cl)cc(-c2cnc3ccc(-c4cc(F)cc(C#N)c4O)cc3c2N2CC(C)(CN)C2)c1` [2-15, 3-{4-[3-(aminomethyl)-3-methylazetidin-1-yl]-3-(3-chloro-5-methylphenyl)quinolin-6-yl}-5-fluoro-2-hydroxybenzonitrile], 100 to 1000 nM.
On the same count and under the same terms, under `Cc1cc(F)cc(-c2cnc3ccc(-c4cc(F)cc(C#N)c4O)cc3c2N2CCC(N)CC2)c1` [2-16, 3-[4-(4-aminopiperidin-1-yl)-3-(3-fluoro-5-methylphenyl)quinolin-6-yl]-5-fluoro-2-hydroxybenzonitrile] stands less than 10 nM; under `Cc1cc(F)cc(-c2cnc3ccc(-c4cc(F)cc(C#N)c4O)cc3c2N2CC(CN)C2)c1` [2-17, 3-{4-[3-(aminomethyl)azetidin-1-yl]-3-(3-fluoro-5-methylphenyl)quinolin-6-yl}-5-fluoro-2-hydroxybenzonitrile], 10 to 100 nM.
As for `Cc1cc(F)cc(-c2cnc3ccc(-c4cc(F)cc(C#N)c4O)cc3c2N2CC(CNCCF)C2)c1` [2-24, 5-fluoro-3-[3-(3-fluoro-5-methylphenyl)-4-(3-{[(2-fluoroethyl)amino]methyl}azetidin-1-yl)quinolin-6-yl]-2-hydroxybenzonitrile], the EC50 is less than 10 nM.
For `Cc1cc(F)cc(-c2cnc3ccc(-c4cc(F)cc(C#N)c4O)cc3c2N2CC(CNC(C)C)C2)c1` [2-25, 5-fluoro-3-[3-(3-fluoro-5-methylphenyl)-4-(3-{[(propan-2-yl)amino]methyl}azetidin-1-yl)quinolin-6-yl]-2-hydroxybenzonitrile], the EC50 is less than 10 nM.
For the compound `CCNCC1CN(c2c(-c3cc(C)cc(F)c3)cnc3ccc(-c4cc(F)cc(C(N)=O)c4)cc23)C1` [2-26, 3-(4-{3-[(ethylamino)methyl]azetidin-1-yl}-3-(3-fluoro-5-methylphenyl)quinolin-6-yl)-5-fluorobenzamide], the EC50 is less than 10 nM.
The same measure, in the same setting: under `COCCNCC1CN(c2c(-c3cc(C)cc(F)c3)cnc3ccc(-c4cc(F)cc(C#N)c4O)cc23)C1` [2-27, 3-[3-(3-fluoro-5-methylphenyl)-4-(3-{[(2-methoxyethyl)amino]methyl}azetidin-1-yl)quinolin-6-yl]-5-fluoro-2-hydroxybenzonitrile] stands less than 10 nM.
The same measure, in the same setting: under `Cc1cc(F)cc(-c2cnc3ccc(-c4cc(F)cc(C#N)c4O)cc3c2N2CC(CNCCCF)C2)c1` [2-28, 5-fluoro-3-[3-(3-fluoro-5-methylphenyl)-4-(3-{[(3-fluoropropyl)amino]methyl}azetidin-1-yl)quinolin-6-yl]-2-hydroxybenzonitrile] stands less than 10 nM; under `Cc1cc(F)cc(-c2cnc3ccc(-c4cc(F)cc(C#N)c4O)cc3c2N2CC(CNC3CC3)C2)c1` [2-29, 3-[4-(3-cyclopropylaminomethyl-azetidin-1-yl)-3-(3-fluoro-5-methyl-phenyl)-quinolin-6-yl]-5-fluoro-2-hydroxy-benzonitrile], less than 10 nM; under `Cc1cc(F)cc(-c2cnc3ccc(-c4cc(F)cc(C#N)c4O)cc3c2N2CC(CN3CCCC3)C2)c1` [2-30, 5-fluoro-3-[3-(3-fluoro-5-methyl-phenyl)-4-(3-pyrrolidin-1-ylmethyl-azetidin-1-yl)-quinolin-6-yl]-2-hydroxy-benzonitrile], less than 10 nM.
`CCCNCC1CN(c2c(-c3cc(C)cc(F)c3)cnc3ccc(-c4cc(F)cc(C#N)c4O)cc23)C1` [2-31, 5-fluoro-3-[3-(3-fluoro-5-methylphenyl)-4-{3-[(propylamino)methyl]azetidin-1-yl}quinolin-6-yl]-2-hydroxybenzonitrile]: the concentration giving a half-maximal response (EC50) is less than 10 nM.
`CCNCC1CN(c2c(-c3cc(C)cc(F)c3)cnc3ccc(-c4c(C)ccc(F)c4O)cc23)C1` [2-38, 2-(4-{3-[(ethylamino)methyl]azetidin-1-yl}-3-(3-fluoro-5-methylphenyl)quinolin-6-yl)-6-fluoro-3-methylphenol]: the EC50 is less than 10 nM.
On the same count and under the same terms, for `Cc1cc(F)cc(-c2cnc3ccc(-c4cc(F)cc(C#N)c4O)cc3c2N2CC(CNCC(C)(C)O)C2)c1` [2-40, 5-fluoro-3-[3-(3-fluoro-5-methylphenyl)-4-(3-{[(2-hydroxy-2-methylpropyl)amino]methyl}azetidin-1-yl)quinolin-6-yl]-2-hydroxybenzonitrile] the value was less than 10 nM; for `CCCNCC1CN(c2c(-c3cc(C)cc(F)c3)cnc3ccc(-c4cccc(C#N)c4O)cc23)C1` [2-42, 3-[3-(3-fluoro-5-methylphenyl)-4-{3-[(propylamino)methyl]azetidin-1-yl}quinolin-6-yl]-2-hydroxybenzonitrile], less than 10 nM.
Still for that read-out and setting: for `Cc1cc(F)cc(-c2cnc3ccc(-c4cc(F)cc(C#N)c4O)cc3c2N2CC(CNCCO)C2)c1` [2-43, 5-fluoro-3-[3-(3-fluoro-5-methylphenyl)-4-(3-{[(2-hydroxyethyl)amino]methyl}azetidin-1-yl)quinolin-6-yl]-2-hydroxybenzonitrile] the value was less than 10 nM.

A word on the EC50: it is the concentration giving half of the maximal effect.
